Results reported in ChEMBL document CHEMBL1649134, “Occurrence of efflux mechanism and cephalosporinase variant in a population of Enterobacter aerogenes and Klebsiella pneumoniae isolates producing extended-spectrum beta-lactamases” (2009).
In brackets after ≈: the same amount, converted by molar mass.

What was measured:
Format in all cases: functional
Klebsiella aerogenes [1] = assay: Antimicrobial activity against multidrug resistant Enterobacter aerogenes isolate 17 by broth dilution method in presence of 26.3 mg/L efflux pump inhibitor phenylalanine-arginine-beta-naphthylamide
Klebsiella aerogenes [2] = assay: Antimicrobial activity against multidrug resistant Enterobacter aerogenes isolate 18 by broth dilution method in presence of 26.3 mg/L efflux pump inhibitor phenylalanine-arginine-beta-naphthylamide
Klebsiella aerogenes [3] = assay: Antimicrobial activity against multidrug resistant Enterobacter aerogenes isolate 19 by broth dilution method in presence of 26.3 mg/L efflux pump inhibitor phenylalanine-arginine-beta-naphthylamide
Klebsiella aerogenes [4] = assay: Antimicrobial activity against multidrug resistant Enterobacter aerogenes isolate 22 by broth dilution method in presence of 26.3 mg/L efflux pump inhibitor phenylalanine-arginine-beta-naphthylamide
Klebsiella aerogenes [5] = assay: Antimicrobial activity against multidrug resistant Enterobacter aerogenes isolate 27 by broth dilution method in presence of 26.3 mg/L efflux pump inhibitor phenylalanine-arginine-beta-naphthylamide
Klebsiella pneumoniae [6] = assay: Antimicrobial activity against multidrug resistant Klebsiella pneumoniae ATCC 11296 by broth dilution method in presence of 26.3 mg/L efflux pump inhibitor phenylalanine-arginine-beta-naphthylamide
Klebsiella pneumoniae [7] = assay: Antimicrobial activity against multidrug resistant Klebsiella pneumoniae isolate 1 by broth dilution method in presence of 26.3 mg/L efflux pump inhibitor phenylalanine-arginine-beta-naphthylamide
Klebsiella pneumoniae [8] = assay: Antimicrobial activity against multidrug resistant Klebsiella pneumoniae isolate 3 by broth dilution method in presence of 26.3 mg/L efflux pump inhibitor phenylalanine-arginine-beta-naphthylamide
Klebsiella pneumoniae [9] = assay: Antimicrobial activity against multidrug resistant Klebsiella pneumoniae isolate 6 by broth dilution method in presence of 26.3 mg/L efflux pump inhibitor phenylalanine-arginine-beta-naphthylamide
Klebsiella pneumoniae [10] = assay: Antimicrobial activity against multidrug resistant Klebsiella pneumoniae isolate 11 by broth dilution method in presence of 26.3 mg/L efflux pump inhibitor phenylalanine-arginine-beta-naphthylamide
Klebsiella pneumoniae [11] = assay: Antimicrobial activity against multidrug resistant Klebsiella pneumoniae isolate 13 by broth dilution method in presence of 26.3 mg/L efflux pump inhibitor phenylalanine-arginine-beta-naphthylamide
Klebsiella pneumoniae [12] = assay: Antimicrobial activity against multidrug resistant Klebsiella pneumoniae isolate 15 by broth dilution method in presence of 26.3 mg/L efflux pump inhibitor phenylalanine-arginine-beta-naphthylamide
Klebsiella pneumoniae [13] = assay: Antimicrobial activity against multidrug resistant Klebsiella pneumoniae isolate 16 by broth dilution method in presence of 26.3 mg/L efflux pump inhibitor phenylalanine-arginine-beta-naphthylamide
Klebsiella aerogenes [14] = assay: Antimicrobial activity against multidrug resistant Enterobacter aerogenes ATCC 15038 by broth dilution method in presence of 26.3 mg/L efflux pump inhibitor phenylalanine-arginine-beta-naphthylamide
Klebsiella aerogenes [15] = assay: Antimicrobial activity against multidrug resistant Enterobacter aerogenes isolate 1 by broth dilution method
Klebsiella aerogenes [16] = assay: Antimicrobial activity against multidrug resistant Enterobacter aerogenes isolate 2 by broth dilution method
Klebsiella aerogenes [17] = assay: Antimicrobial activity against multidrug resistant Enterobacter aerogenes isolate 3 by broth dilution method
Klebsiella aerogenes [18] = assay: Antimicrobial activity against multidrug resistant Enterobacter aerogenes isolate 8 by broth dilution method
Klebsiella aerogenes [19] = assay: Antimicrobial activity against multidrug resistant Enterobacter aerogenes isolate 11 by broth dilution method
Klebsiella aerogenes [20] = assay: Antimicrobial activity against multidrug resistant Enterobacter aerogenes isolate 14 by broth dilution method
Klebsiella aerogenes [21] = assay: Antimicrobial activity against multidrug resistant Enterobacter aerogenes isolate 15 by broth dilution method
Klebsiella aerogenes [22] = assay: Antimicrobial activity against multidrug resistant Enterobacter aerogenes isolate 18 by broth dilution method
Klebsiella aerogenes [23] = assay: Antimicrobial activity against multidrug resistant Enterobacter aerogenes isolate 20 by broth dilution method
Klebsiella aerogenes [24] = assay: Antimicrobial activity against multidrug resistant Enterobacter aerogenes isolate 24 by broth dilution method
Klebsiella aerogenes [25] = assay: Antimicrobial activity against multidrug resistant Enterobacter aerogenes isolate 27 by broth dilution method
Klebsiella pneumoniae [26] = assay: Antimicrobial activity against multidrug resistant Klebsiella pneumoniae ATCC 11296 by broth dilution method
Klebsiella pneumoniae [27] = assay: Antimicrobial activity against multidrug resistant Klebsiella pneumoniae isolate 1 by broth dilution method
Klebsiella pneumoniae [28] = assay: Antimicrobial activity against multidrug resistant Klebsiella pneumoniae isolate 3 by broth dilution method
Klebsiella pneumoniae [29] = assay: Antimicrobial activity against multidrug resistant Klebsiella pneumoniae isolate 6 by broth dilution method
Klebsiella pneumoniae [30] = assay: Antimicrobial activity against multidrug resistant Klebsiella pneumoniae isolate 7 by broth dilution method
Klebsiella pneumoniae [31] = assay: Antimicrobial activity against multidrug resistant Klebsiella pneumoniae isolate 8 by broth dilution method
Klebsiella pneumoniae [32] = assay: Antimicrobial activity against multidrug resistant Klebsiella pneumoniae isolate 9 by broth dilution method
Klebsiella pneumoniae [33] = assay: Antimicrobial activity against multidrug resistant Klebsiella pneumoniae isolate 14 by broth dilution method
Klebsiella pneumoniae [34] = assay: Antimicrobial activity against multidrug resistant Klebsiella pneumoniae isolate 15 by broth dilution method
Klebsiella pneumoniae [35] = assay: Antimicrobial activity against multidrug resistant Klebsiella pneumoniae isolate 16 by broth dilution method
Klebsiella aerogenes [36] = assay: Antimicrobial activity against multidrug resistant Enterobacter aerogenes isolate 1 by broth dilution method in presence of 26.3 mg/L efflux pump inhibitor phenylalanine-arginine-beta-naphthylamide
Klebsiella aerogenes [37] = assay: Antimicrobial activity against multidrug resistant Enterobacter aerogenes isolate 2 by broth dilution method in presence of 26.3 mg/L efflux pump inhibitor phenylalanine-arginine-beta-naphthylamide
Klebsiella aerogenes [38] = assay: Antimicrobial activity against multidrug resistant Enterobacter aerogenes isolate 5 by broth dilution method in presence of 26.3 mg/L efflux pump inhibitor phenylalanine-arginine-beta-naphthylamide
Klebsiella aerogenes [39] = assay: Antimicrobial activity against multidrug resistant Enterobacter aerogenes isolate 9 by broth dilution method in presence of 26.3 mg/L efflux pump inhibitor phenylalanine-arginine-beta-naphthylamide
Klebsiella aerogenes [40] = assay: Antimicrobial activity against multidrug resistant Enterobacter aerogenes isolate 11 by broth dilution method in presence of 26.3 mg/L efflux pump inhibitor phenylalanine-arginine-beta-naphthylamide
Klebsiella aerogenes [41] = assay: Antimicrobial activity against multidrug resistant Enterobacter aerogenes isolate 14 by broth dilution method in presence of 26.3 mg/L efflux pump inhibitor phenylalanine-arginine-beta-naphthylamide

C[C@@H]1CN(c2c(F)c(N)c3c(=O)c(C(=O)O)cn(C4CC4)c3c2F)C[C@H](C)N1 [SPARFLOXACIN]
MIC (Klebsiella aerogenes [1]): 16 µg/mL | MIC (Klebsiella aerogenes [2]): 16 µg/mL | MIC (Klebsiella aerogenes [3]): 16 µg/mL | MIC (Klebsiella aerogenes [4]): 8 µg/mL | MIC (Klebsiella aerogenes [5]): 8 µg/mL | MIC (Klebsiella pneumoniae [6]): ≤ 0.06 µg/mL | MIC (Klebsiella pneumoniae [7]): 0.25 µg/mL | MIC (Klebsiella pneumoniae [8]): 4 µg/mL | MIC (Klebsiella pneumoniae [9]): ≤ 0.06 µg/mL | MIC (Klebsiella pneumoniae [10]): 2 µg/mL | MIC (Klebsiella pneumoniae [11]): 0.5 µg/mL | MIC (Klebsiella pneumoniae [12]): 8 µg/mL | MIC (Klebsiella pneumoniae [13]): ≤ 0.06 µg/mL | MIC (Klebsiella aerogenes [14]): ≤ 0.06 µg/mL | MIC (Klebsiella aerogenes [15]): 256 µg/mL (≈ 652 µM) | MIC (Klebsiella aerogenes [16]): 128 µg/mL (≈ 326 µM) | MIC (Klebsiella aerogenes [17]): 128 µg/mL (≈ 326 µM) | MIC (Klebsiella aerogenes [18]): 64 µg/mL (≈ 163 µM) | MIC (Klebsiella aerogenes [19]): 128 µg/mL (≈ 326 µM) | MIC (Klebsiella aerogenes [20]): 128 µg/mL (≈ 326 µM) | MIC (Klebsiella aerogenes [21]): 128 µg/mL (≈ 326 µM) | MIC (Klebsiella aerogenes [22]): 128 µg/mL (≈ 326 µM) | MIC (Klebsiella aerogenes [23]): 256 µg/mL (≈ 652 µM) | MIC (Klebsiella aerogenes [24]): 256 µg/mL (≈ 652 µM) | MIC (Klebsiella aerogenes [25]): 256 µg/mL (≈ 652 µM) | MIC (Klebsiella pneumoniae [26]): ≤ 0.06 µg/mL | MIC (Klebsiella pneumoniae [27]): 0.25 µg/mL (≈ 0.637 µM) | MIC (Klebsiella pneumoniae [28]): 8 µg/mL (≈ 20.4 µM) | MIC (Klebsiella pneumoniae [29]): ≤ 0.06 µg/mL | MIC (Klebsiella pneumoniae [30]): 0.25 µg/mL (≈ 0.637 µM) | MIC (Klebsiella pneumoniae [31]): 0.125 µg/mL (≈ 0.319 µM) | MIC (Klebsiella pneumoniae [32]): ≤ 0.06 µg/mL | MIC (Klebsiella pneumoniae [33]): 2 µg/mL (≈ 5.1 µM) | MIC (Klebsiella pneumoniae [34]): 32 µg/mL (≈ 81.5 µM) | MIC (Klebsiella pneumoniae [35]): 0.125 µg/mL (≈ 0.319 µM) | MIC (Klebsiella aerogenes [36]): 8 µg/mL | MIC (Klebsiella aerogenes [37]): 8 µg/mL | MIC (Klebsiella aerogenes [38]): 16 µg/mL | MIC (Klebsiella aerogenes [39]): 8 µg/mL | MIC (Klebsiella aerogenes [40]): 4 µg/mL | MIC (Klebsiella aerogenes [41]): 8 µg/mL

CN(C)[C@@H]1C(O)=C(C(N)=O)C(=O)[C@@]2(O)C(O)=C3C(=O)c4c(O)cccc4[C@@](C)(O)[C@H]3C[C@@H]12 [TETRACYCLINE]
MIC (Klebsiella aerogenes [1]): 8 µg/mL | MIC (Klebsiella aerogenes [2]): 4 µg/mL | MIC (Klebsiella aerogenes [3]): 8 µg/mL | MIC (Klebsiella aerogenes [4]): 4 µg/mL | MIC (Klebsiella aerogenes [5]): 8 µg/mL | MIC (Klebsiella pneumoniae [6]): 1 µg/mL | MIC (Klebsiella pneumoniae [7]): 128 µg/mL | MIC (Klebsiella pneumoniae [8]): 256 µg/mL | MIC (Klebsiella pneumoniae [9]): 256 µg/mL | MIC (Klebsiella pneumoniae [10]): 4 µg/mL | MIC (Klebsiella pneumoniae [11]): 128 µg/mL | MIC (Klebsiella pneumoniae [12]): 128 µg/mL | MIC (Klebsiella pneumoniae [13]): 128 µg/mL | MIC (Klebsiella aerogenes [14]): 0.5 µg/mL | MIC (Klebsiella aerogenes [15]): 128 µg/mL (≈ 288 µM) | MIC (Klebsiella aerogenes [16]): 64 µg/mL (≈ 144 µM) | MIC (Klebsiella aerogenes [17]): 128 µg/mL (≈ 288 µM) | MIC (Klebsiella aerogenes [18]): 64 µg/mL (≈ 144 µM) | MIC (Klebsiella aerogenes [19]): 64 µg/mL (≈ 144 µM) | MIC (Klebsiella aerogenes [20]): 64 µg/mL (≈ 144 µM) | MIC (Klebsiella aerogenes [21]): 64 µg/mL (≈ 144 µM) | MIC (Klebsiella aerogenes [22]): 4 µg/mL (≈ 9 µM) | MIC (Klebsiella aerogenes [23]): 64 µg/mL (≈ 144 µM) | MIC (Klebsiella aerogenes [24]): 64 µg/mL (≈ 144 µM) | MIC (Klebsiella aerogenes [25]): 128 µg/mL (≈ 288 µM) | MIC (Klebsiella pneumoniae [26]): 2 µg/mL (≈ 4.5 µM) | MIC (Klebsiella pneumoniae [27]): 8 µg/mL (≈ 18 µM) | MIC (Klebsiella pneumoniae [28]): 4 µg/mL (≈ 9 µM) | MIC (Klebsiella pneumoniae [29]): 2 µg/mL (≈ 4.5 µM) | MIC (Klebsiella pneumoniae [30]): 2 µg/mL (≈ 4.5 µM) | MIC (Klebsiella pneumoniae [31]): 2 µg/mL (≈ 4.5 µM) | MIC (Klebsiella pneumoniae [32]): 8 µg/mL (≈ 18 µM) | MIC (Klebsiella pneumoniae [33]): 2 µg/mL (≈ 4.5 µM) | MIC (Klebsiella pneumoniae [34]): 2 µg/mL (≈ 4.5 µM) | MIC (Klebsiella pneumoniae [35]): 4 µg/mL (≈ 9 µM) | MIC (Klebsiella aerogenes [36]): 8 µg/mL | MIC (Klebsiella aerogenes [37]): 4 µg/mL | MIC (Klebsiella aerogenes [38]): 32 µg/mL | MIC (Klebsiella aerogenes [39]): 4 µg/mL | MIC (Klebsiella aerogenes [40]): 8 µg/mL | MIC (Klebsiella aerogenes [41]): 16 µg/mL
